Measurements reported in ChEMBL document CHEMBL1158475, “Identification of novel falcipain-2 inhibitors as potential antimalarial agents through structure-based virtual screening” (J Med Chem, 2009).
The source made the active and inactive calls. The calls are words filed in the database; no cut-off is given here.

Legend:
[1] = Inhibition of Plasmodium falciparum recombinant falcipain-2 by microtiter plate spectrofluorimetry
Plasmodium falciparum [2] = test: Inhibition of Plasmodium falciparum recombinant falcipain-2 at 10 uM by microtiter plate spectrofluorimetry
Plasmodium falciparum [3] = test: Binding affinity to Plasmodium falciparum recombinant falcipain-2 by isothermal titration calorimetry
Plasmodium falciparum [4] = test: Inhibition of Plasmodium falciparum recombinant falcipain-2 at 10 uM after dialysis in refolding buffer for 8 hrs by SDS-PAGE
Plasmodium falciparum [5] = test: Induction of Plasmodium falciparum recombinant falcipain-2 aggregation by FPLC gel filtration chromatography
Plasmodium falciparum [6] = test: Induction of Plasmodium falciparum recombinant falcipain-2 aggregation by pseudonative gel analysis

Compound	IC50 [1]	inhibition (Plasmodium falciparum [2])	Activity (Plasmodium falciparum [3])	Activity (Plasmodium falciparum [4])	Activity (Plasmodium falciparum [5])	Activity (Plasmodium falciparum [6])
CC(Sc1nc(-c2ccccc2O)n[nH]1)C(=O)Nc1cccc(Cl)c1 (centres undefined)	5.8 µM	71.4%	–	–	–	–
CC(=O)c1ccc(NC(=O)CSc2nnc(COc3ccc4ccccc4c3)n2-c2ccccc2)cc1	> 50 µM	23.4%	–	–	–	–
O=C(Cn1nnc(-c2ccccc2)n1)N/N=C/c1ccccc1OCc1ccc(Cl)cc1Cl	20 µM	28.9%	–	–	–	–
Cc1cccc(OCC(=O)Nc2nc(-c3ccc(S(=O)(=O)N4CCOCC4)cc3)cs2)c1	> 50 µM	21.3%	–	–	–	–
CC(=O)c1ccc(NC(=O)CSc2nnc(COc3cccc4cccnc34)n2-c2ccccc2)cc1	> 50 µM	21.9%	–	–	–	–
CCn1c(CNC(=O)Cc2ccc(OC)cc2)nnc1SCC(=O)Nc1ccc(Cl)c(Cl)c1	20 µM	25.9%	–	–	–	–
O=C(Cc1nnc(NC(=O)c2ccc(Br)cc2)s1)NNC(=O)c1ccc(Br)cc1	> 50 µM	20.2%	–	–	–	–
CC(NC(=O)COc1ccc2ccccc2c1)C(=O)N/N=C/c1cccc(Cl)c1Cl (centres undefined)	> 50 µM	25.1%	–	–	–	–
O=C(NC(Cc1c[nH]c2ccccc12)C(=O)NCc1ccccc1)Oc1ccccc1 (centres undefined)	29.7 µM	29.4%	–	–	–	–
Cc1c(Cl)cccc1-c1ccc(/C=N\Nc2nncn2/N=C/c2ccc(-c3cccc(Cl)c3C)o2)o1	6.4 µM	56.5%	–	–	–	–
CCOC(=O)c1ccc(NC(=O)CSc2nnc(-c3ccccc3Br)n2CC)cc1	17.1 µM	38.3%	–	–	–	–
O=C(COC(=O)c1ccc(S(=O)(=O)c2cccc(S(=O)(=O)N3CCOCC3)c2)cc1)c1ccccc1	20 µM	36.9%	–	–	–	–
Cc1cc(C)nc(NS(=O)(=O)c2ccc(NC(=S)NC(=O)c3cccnc3)cc2)n1	> 50 µM	20.2%	–	–	–	–
O=C(COc1ccc2ccccc2c1)NCC(=O)N/N=C/c1ccc(-c2ccc(Cl)c(Cl)c2)o1	13.2 µM	48.5%	–	–	–	–
O=C(CN1C(=O)S/C(=C/c2ccc(-c3ccc(Cl)c(C(=O)O)c3)o2)C1=O)Nc1ccc2c(c1)OCO2	10.9 µM	41.4%	–	–	–	–
COc1cc(NS(=O)(=O)c2ccc(NC(=O)c3cc(-c4cccc(C)c4)nc4ccccc34)cc2)ncn1	20 µM	26.9%	–	–	–	–
O=C(CSc1nnc(SCC(=O)Nc2ccc(Cl)cc2)s1)Nc1ccc(Cl)cc1	20 µM	28.2%	–	–	–	–
CCOC(=O)c1c(-c2ccc(-c3ccccc3)cc2)csc1NC(=O)CSc1nnc2sc3ccccc3n12	15 µM	36.6%	–	–	–	–
C=CCn1c(SCC(=O)Nc2sc3c(c2C(N)=O)CCC3)nc2scc(-c3ccccc3)c2c1=O	2.4 µM	53.1%	inactive	inactive	inactive	inactive
CC(C)C[C@H](NC(=O)[C@H]1O[C@@H]1C(=O)O)C(=O)NCCCCN=C(N)N [E-64]	0.017 µM	97.4%	Active	Active	–	–
COc1ccc(C(=O)NNC(=O)CSc2nnc(COc3ccc4ccccc4c3)n2C)cc1	> 50 µM	20.8%	–	–	–	–
Cc1ccc(NC(=O)CN2C(=O)S/C(=C/c3ccc(-c4ccc(Cl)c(C(=O)O)c4)o3)C2=O)cc1	20 µM	29%	–	–	–	–
CCc1ccc(OCc2nnc(SCC(=O)Nc3ccc4ccccc4c3)o2)cc1	> 50 µM	21.9%	–	–	–	–
O=C(COc1cccc(Cl)c1)Nc1nc(-c2ccc(S(=O)(=O)N3CCOCC3)cc2)cs1	20 µM	25.2%	–	–	–	–
O=C(CCc1ccc(S(=O)(=O)NCCc2ccccc2)cc1)Nc1ccc2c(c1)OCCO2	54.2 µM	20.3%	–	–	–	–
COc1cccc(OCC(=O)NC(=S)Nc2cccc(-c3nc4ncccc4o3)c2C)c1	> 50 µM	20.2%	–	–	–	–
Nc1nnc(SCC(=O)Nc2ccc3nc(SCc4cccc5ccccc45)sc3c2)s1	15 µM	44%	–	–	–	–
COc1cccc(/C=N/NC(=O)c2ccn(Cc3ccc(Cl)cc3Cl)n2)c1O	> 50 µM	21.8%	–	–	–	–
CC(=O)c1ccc(-c2ccc(/C=N/Nc3nc(N4CCCCC4)nc(N4CCCCC4)n3)o2)cc1	20 µM	27.9%	–	–	–	–
